Source: patent US8697911B2, “Rho kinase inhibitors” (Boehringer Ingelheim International GmbH, priority 2010, dated 2014)

Tests used:
ROCKII (1-543) [1] = molecular target: T1, ROCKII (1-543) (Homo sapiens (Human), UniProt O75116); test: IMAP Assay (Assay 2); assay type: biochemical; settings: IMAP fluorescence polarization; 100 μM ATP, 1 nM kinase
Experimental: This assay is performed using FAM S6 substrate peptide (Catalogue #R7184) and IMAP FP Screening Express Kit detection reagents from Molecular Devices (Sunnyvale, Calif.) in IMAP kinase reaction buffer (Tris-HCl, pH 7.2, 10 mM MgCl2, 0.05% NaN3, 0.1% phosphate-free BSA) containing 1 mM DTT. Test compounds dissolved in neat DMSO at 0.3 mg/mL are serially diluted 1 to 3 for concentration response in 100% DMSO. The DMSO serial dilutions are further diluted 33.33-fold in kinase reaction buffer, and 10 μL of this buffer dilution is transferred to Corning black 96-well half area NBS plates for a final top concentration of 3 μg/mL in 1% DMSO. 10 μL aliquot of 3 nM ROCKII (1-543) diluted in kinase reaction buffer is added to each assay well for a final concentration of 1 nM kinase. 10 μL of a mixture of 600 nM FAM S6 peptide and 300 μM ATP diluted in kinase reaction buffer is added to each well for a final concentration of 200 nM peptide and 100 μM ATP. The kinase reaction mixture is incubated for 60 minutes at room temperature. Positive controls are reaction mixtures containing no test compound and negative controls (blanks) are reaction mixtures containing no kinase. The kinase reaction is stopped by addition of 60 μL IMAP progressive binding reagent (Catalog #R7284) diluted 400-fold in 1× Binding buffer A. After 30 min of incubation at room temperature, the plates are read for fluorescence polarization on Analyst Plate Reader using Ex 485 nm, Em 530 nm, and FL 505 dichroic minor. The mP signals are converted to percent of control (POC) values using the formula: POC=100*(Signal−BCTRL)÷(PCTRL−BCTRL)
Where Signal is the test well signal, BCTRL is the average of background (negative control) well signals on the plate and PCTRL is the average of positive control well signals on the plate. For the concentration-responsive compounds, POC as a function of test compound concentration is fitted to a 4-parameter logistic equation of the form: Y=A+(B−A)/[1+(x/C)D]
Where A, B, C, and D are fitted parameters (parameter B is fixed at zero POC), and x and y are the independent and dependent variables, respectively. The IC50 is determined as the inflection point parameter, C.
Target sequence in this assay (O75116 1-543, species assumed): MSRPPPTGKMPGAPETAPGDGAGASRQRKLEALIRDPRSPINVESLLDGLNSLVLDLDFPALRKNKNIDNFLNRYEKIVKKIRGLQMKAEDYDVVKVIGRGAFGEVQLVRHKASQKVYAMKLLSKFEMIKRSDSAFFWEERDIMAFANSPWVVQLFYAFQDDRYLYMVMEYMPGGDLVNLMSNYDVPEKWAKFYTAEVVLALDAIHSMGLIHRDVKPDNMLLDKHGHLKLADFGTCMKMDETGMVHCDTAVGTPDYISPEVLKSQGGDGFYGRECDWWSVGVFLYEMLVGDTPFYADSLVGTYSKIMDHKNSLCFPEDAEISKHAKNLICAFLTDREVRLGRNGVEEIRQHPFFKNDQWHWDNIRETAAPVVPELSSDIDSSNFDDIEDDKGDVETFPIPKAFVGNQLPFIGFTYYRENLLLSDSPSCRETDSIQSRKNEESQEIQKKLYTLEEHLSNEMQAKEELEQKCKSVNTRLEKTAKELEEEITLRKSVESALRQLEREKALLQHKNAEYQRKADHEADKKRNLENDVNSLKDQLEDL

ROCKII (1-543) [2] = molecular target: T1, ROCKII (1-543); test: Luciferin-Luciferase Assay (Assay 1); assay type: biochemical; settings: luciferin-luciferase residual ATP; 750 nM ATP, 7.5 nM kinase
Experimental: 1. Luciferin-Luciferase Assay
The activity of ROCKII (1-543) kinase is measured utilizing Cambrex PKLight ATP Detection Reagent, a homogeneous assay technology using luciferin-luciferase to quantify residual ATP. The assay is performed in 384-well low-volume, white, non-binding surface microtiter plates (Corning). The assay buffer is 25 mM HEPES, pH 7.5, 10 mM MgCl2, 50 mM KCl, 0.2% BSA, 0.01% CHAPS, 100 μM Na3VO4 and 0.5 mM DTT. Test compounds, dissolved in neat DMSO at 500 μg/mL, are serially diluted for dose response for a final starting concentration of 3 μg/mL in 1% DMSO of assay buffer. ROCKII (1-543) (62,408 Da) is diluted in assay buffer to a final concentration of 7.5 nM in a total volume of 15 μL. Positive controls are reaction mixtures containing no test compound; negative controls (blanks) are reaction mixtures containing no kinase. After 15 minutes of pre-incubation of the test compounds with the kinase, a mixture of ATP and peptide substrate ([…]) in assay buffer is added to each well for a final concentration of 750 nM ATP and 500 nM peptide, respectively. After 90 minutes of incubation of the kinase reaction at 28° C. temperature, 10 μL of PKLight ATP Detection Reagent (warmed to room temperature previously) is added to each well. The assay plate is incubated at room temperature for additional 15 minutes and then read on an Analyst in luminescence mode. Dose-response experiments for each of the test compounds are conducted in quadruplet. IC50 values of test compounds represent 50% response of the positive control from the dose-response curve.
Target sequence in this assay (O75116 1-543): as the sequence (O75116 1-543, species assumed) above

Structure (SMILES)	IC50 (ROCKII (1-543) [1]) [pM]	IC50 (ROCKII (1-543) [2]) [pM]
CN1CCc2nc(NC(=O)c3cccc(CNC(=O)c4ccc(-c5cnco5)cc4)c3)sc2C1 [compound 12]	210	
CN1CCc2ccc(NC(=O)c3cccc(CNC(=O)c4cn5ccc(C#N)cc5n4)c3)cc2C1 [compound 18]		19300
CN1CCc2nc(NC(=O)c3cccc(CNC(=O)c4ccc5cc(O)ccc5c4)c3)sc2C1 [compound 20]	390	
CN1CCc2ccc(NC(=O)c3cccc(CNC(=O)c4csc(-c5ccncc5)n4)c3)cc2C1 [compound 33]		33000
CN1CCc2ccc(NC(=O)c3cccc(CNC(=O)c4cn5cc(C#N)ccc5n4)c3)cc2C1 [compound 48]		35500
CN1CCc2nc(NC(=O)c3cccc(CNC(=O)c4ccc(-c5ccncc5)cc4)c3)sc2C1 [compound 56]	260	
CN1CCc2ccc(NC(=O)c3cccc(CNC(=O)c4ccc(-c5cccnc5)s4)c3)cc2C1 [compound 62, 5-pyridin-3-yl-thiophene-2-carboxylic acid 3-(2-methyl-1,2,3,4-tetrahydro-isoquinolin-7-ylcarbamoyl)-benzylamide]		18500
Cc1ncc(-c2ccc(C(=O)NCc3cccc(C(=O)Nc4ccc5c(c4)CN(C)CC5)c3)s2)o1 [compound 68]		64200
CN1CCc2ccc(NC(=O)c3cccc(CNC(=O)c4ccc(-c5ccncc5)s4)c3)cc2C1 [compound 70]	250	
CN1CCc2ccc(NC(=O)c3cccc(CNC(=O)c4ccc(-c5cn[nH]c5)s4)c3)cc2C1 [compound 78, 5-(1H-pyrazol-4-yl)-thiophene-2-carboxylic acid 3-(2-methyl-1,2,3,4-tetrahydro-isoquinolin-7-ylcarbamoyl)-benzylamide]	170	
CN1CCc2ccc(NC(=O)c3cccc(CNC(=O)c4cc5ccc(C(N)=O)cc5n4C)c3)cc2C1 [compound 84]	260	
CN(C)[C@H]1CCc2nc(NC(=O)c3cccc(CNC(=O)c4cn5ccc(C#N)cc5n4)c3)sc2C1 [compound 98]	270	
Cc1nnnn1-c1ccc(C(=O)NCc2cccc(C(=O)Nc3nc4c(s3)C[C@@H](N(C)C)CC4)c2)cc1 [compound 104]	430	
CN(C)[C@H]1CCc2nc(NC(=O)c3cccc(CNC(=O)c4ccc(-c5ccncc5)cc4)c3)sc2C1 [compound 106]	220	
CN1CCc2nc(NC(=O)c3cccc(CNC(=O)c4ccc(-c5ccncc5)s4)c3)sc2C1 [compound 112]	180	
CN1CCc2nc(NC(=O)c3cccc(CNC(=O)c4ccc(-c5cnco5)s4)c3)sc2C1 [compound 114]	450	
CN(C)[C@H]1CCc2nc(NC(=O)c3cccc(CNC(=O)c4cccc(-c5cn[nH]c5)c4)c3)sc2C1 [compound 132]	320	

Structure (SMILES)	IC50 (ROCKII (1-543) [1]) [pM]	IC50 (ROCKII (1-543) [2]) [pM]
CN(C)[C@H]1CCc2nc(NC(=O)c3cccc(CNC(=O)c4ccc(-n5ccnc5)cc4)c3)sc2C1 [compound 134]	240	
CN(C)[C@H]1CCc2nc(NC(=O)c3cccc(CNC(=O)c4ccc(-c5cnco5)cc4)c3)sc2C1 [compound 136]	200	
CN(C)[C@H]1CCc2nc(NC(=O)c3cccc(CNC(=O)c4nnn(-c5nonc5N)c4-c4ccccc4)c3)sc2C1 [compound 138]	210	
CN(C)[C@H]1CCc2nc(NC(=O)c3cccc(CNC(=O)c4csc(-c5ccncc5)n4)c3)sc2C1 [compound 140]	870	
O=C(Nc1nc2c(s1)C[C@@H](N1CCOCC1)CC2)c1cccc(CNC(=O)c2csc(-c3cccnc3)n2)c1 [compound 146]	730	
N#Cc1ccn2cc(C(=O)NCc3cccc(C(=O)Nc4nc5c(s4)C[C@@H](N4CCOCC4)CC5)c3)nc2c1 [compound 148]	520	
O=C(NCc1cccc(C(=O)Nc2nc3c(s2)C[C@@H](N2CCOCC2)CC3)c1)c1ccc(-c2cnco2)cc1 [compound 162]	430	
O=C(Nc1nc2c(s1)C[C@@H](N1CCOCC1)CC2)c1cccc(CNC(=O)c2csc(-c3ccncc3)n2)c1 [compound 164]	930	
O=C(Nc1nc2c(s1)C[C@@H](N1CCOCC1)CC2)c1cccc(CNC(=O)c2cc(-c3ccncc3)[nH]n2)c1 [compound 166]	340	
O=C(NCc1cccc(C(=O)Nc2nc3c(s2)C[C@@H](N2CCOCC2)CC3)c1)c1cccc(-c2cn[nH]c2)c1 [compound 170]	410	
O=C(NCc1cccc(C(=O)Nc2nc3c(s2)C[C@@H](N2CCOCC2)CC3)c1)c1ccc(-n2ccnc2)cc1 [compound 172]	380	
Cc1nnnn1-c1ccc(C(=O)NCc2cccc(C(=O)Nc3nc4c(s3)C[C@@H](N3CCOCC3)CC4)c2)cc1 [compound 174]	350	
N#Cc1ccc2cc(C(=O)NCc3cccc(C(=O)Nc4nc5c(s4)C[C@@H](N4CCOCC4)CC5)c3)[nH]c2c1 [compound 176]	870	
CN1CCc2ccc(NC(=O)c3cccc(CNC(=O)N4CCc5c(C#N)cccc54)c3)cc2C1 [compound 201, 4-cyano-2,3-dihydro-indole-1-carboxylic acid 3-(2-methyl-1,2,3,4-tetrahydro-isoquinolin-7-ylcarbamoyl)-benzylamide]	34000	
CN1CCc2ccc(NC(=O)c3cccc(CNC(=O)c4nc(-c5cccnc5)cs4)c3)cc2C1 [compound 202]	72000	
Cc1nc(-c2ccncc2)sc1C(=O)NCc1cccc(C(=O)Nc2nc3c(s2)C[C@@H](N(C)C)CC3)c1 [compound 205]	250	

Other lines, results leading:

IC50 (ROCKII (1-543) [1]) [pM]	IC50 (ROCKII (1-543) [2]) [pM]	Structure (SMILES)
1900		CN1CCc2nc(NC(=O)c3cccc(CNC(=O)c4ccc(-n5ccnc5)cc4)c3)sc2C1 [compound 2]
	14300	N[C@@H]1CCc2nc(NC(=O)c3cccc(CNC(=O)c4ccc(-c5csnn5)cc4)c3)sc2C1 [compound 24]
4800		N[C@@H]1CCc2nc(NC(=O)c3cccc(CNC(=O)c4csc(-c5ccncc5)n4)c3)sc2C1 [compound 32]
	43500	Cc1nnnn1-c1ccc(C(=O)NCc2cccc(C(=O)Nc3ccc4c(c3)CN(C)CC4)c2)cc1 [compound 37]
	28000	CN1CCc2ccc(NC(=O)c3cccc(CNC(=O)c4cccc(-c5cccnc5)c4)c3)cc2C1 [compound 53]
320		CN(C)[C@H]1CCc2nc(NC(=O)c3cccc(CNC(=O)c4csc(-c5cccnc5)n4)c3)sc2C1 [compound 108]
770		CN1CCc2nc(NC(=O)c3cccc(CNC(=O)c4ccc(-c5cn[nH]c5)s4)c3)sc2C1 [compound 120]
270		CN(C)[C@H]1CCc2nc(NC(=O)c3cccc(CNC(=O)c4ccc(-c5ccncc5)s4)c3)sc2C1 [compound 126]
370		CN(C)[C@H]1CCc2nc(NC(=O)c3cccc(CNC(=O)c4ccc(-c5cnco5)s4)c3)sc2C1 [compound 128]
220		CN(C)[C@H]1CCc2nc(NC(=O)c3cccc(CNC(=O)c4ccc(-c5cn[nH]c5)s4)c3)sc2C1 [compound 130]
330		Cc1c(C(=O)NCc2cccc(C(=O)Nc3nc4c(s3)C[C@@H](N(C)C)CC4)c2)nnn1-c1nonc1N [compound 142]
2650		Nc1nonc1-n1nnc(C(=O)NCc2cccc(C(=O)Nc3nc4c(s3)C[C@@H](N3CCOCC3)CC4)c2)c1-c1ccccc1 [compound 150]
370		Cc1nc(-c2ccncc2)sc1C(=O)NCc1cccc(C(=O)Nc2nc3c(s2)C[C@@H](N2CCOCC2)CC3)c1 [compound 168]
200		CN(C)[C@H]1CCc2nc(NC(=O)c3cccc(CNC(=O)c4cc(-c5ccncc5)[nH]n4)c3)sc2C1 [compound 207]
3700		CN1CCc2nc(NC(=O)c3cccc(CNC(=O)c4cn5cc(C(N)=O)ccc5n4)c3)sc2C1 [compound 209]
